{"source": "paper PMC8474110", "about": "(Journal of Medicinal Chemistry, 2021)", "origin": "cited, not measured here", "key": {"[1]": {"test_system": "VEGF-A-stimulated human retinal endothelial cells (HRECs)", "set-up": "method as in PMID 27739690", "conditions": "cited from earlier work"}, "HREC": {"test_system": "HREC", "conditions": "cited from earlier work"}}, "note": "Where two headings read alike, the source gives them in different places.", "data": [{"smiles": "CCCC(CCC)C(=O)OC(CCCN1CCC(O)(c2ccc(Cl)cc2)CC1)c1ccc(F)cc1", "note": "(racemic) [(±)-1]", "values": [{"measurement": "reduction of cell migration and proliferation, times more than (±)-HP-mII", "setting": "[1]", "result": 20, "unit": "times"}, {"measurement": "reduction of cell migration and proliferation, times more than VPA", "setting": "[1]", "result": 120, "unit": "times"}, {"measurement": "pIC50 ± SE, MTT viability test on HREC", "setting": "HREC; 24 h", "result": "4.98 ± 0.02"}, {"measurement": "pIC50 ± SE, MTT viability test on HREC", "setting": "HREC; 48 h", "result": "4.95 ± 0.03"}, {"measurement": "pIC50 ± SE, MTT viability test on HREC", "setting": "HREC; 72 h", "result": "4.99 ± 0.04"}]}]}
